Reference: article PMC7822874, “Chemoprotective antimalarials identified through quantitative high-throughput screening of Plasmodium blood and liver stage parasites” (Scientific Reports, 2021)
Like-named read-outs stand apart in the source and are kept apart here.

Tests used:
in vitro = conditions: human
[1] = tested on: P. berghei-ANKA-GFP-LucCON liver stage parasites in HepG2-A16-CD81EGFP cells; assay: P. berghei liver stage Pb-Luc assay, Method 1 (UCSD, 1536-well); type: cell-based, Plasmodium berghei; conditions: for activity at 1 µM / activity at 3 µM: 48 h, average of 2 wells on a 1536 well plate; for activity at 1 µM: 1 uM (compounds provided at 10 mM); for activity at 3 µM: 3 uM (compounds provided at 10 mM)
[2] = tested on: Plasmodium falciparum Dd2 asexual blood stage parasites; assay: microbe, parasite or virus in culture; set-up: species or system Plasmodium falciparum Dd2 in human erythrocytes; single determination (one 11-point concentration-response curve); conditions: Plasmodium falciparum, DD2, Erythrocyte, 72 h
[3] = HepG2-A16-CD81EGFP cells, uninfected
[4] = Plasmodium berghei, column 11, read-out: Pb-Luc (P. berghei liver stage), % of control, lower concentration, first repeat
[5] = Plasmodium berghei, column 12, read-out: Pb-Luc (P. berghei liver stage), % of control, lower concentration, second repeat
[6] = Plasmodium berghei, column 8, read-out: Pb-Luc (P. berghei liver stage), % of control, higher concentration, first repeat
[7] = Plasmodium berghei, column 9, read-out: Pb-Luc (P. berghei liver stage), % of control, higher concentration, second repeat

COc1ccccc1-c1nnc2sc(COc3ccc(F)cc3)nn12 [MLS000042616-01]
viability at 48 h (in vitro; [3]): 102%
viability at 48 h, 1 µM (in vitro; [3]): 102%

C=CCNc1nc(N(c2ccccc2)c2ccccc2)nc(-n2ccnc2)n1 [MLS000045718-01]
viability at 66 h (in vitro; [3]): 107%

CCCN(CCC)C(=O)Cn1ccc(=N)c2ccccc21 [MLS000047676-01]
viability at 48 h, 1 µM (in vitro; [3]): 95%
viability at 48 h, 3 µM (in vitro; [3]): 87%

COc1cccc(N2C(N)=NC(N)=NC2(C)C)c1 [MLS000047853-01]
viability at 48 h (in vitro; [3]): 103%
viability at 48 h, 1 µM (in vitro; [3]): 103%

CCOc1cc(C2NCc3ccccc3-n3cccc32)ccc1O (stereo not drawn) [MLS000047991-01]
viability at 48 h, 1 µM (in vitro): 97%
viability at 48 h, 3 µM (in vitro): 95%

COc1cccc(OCCn2cc(C(=O)c3ccco3)c3ccccc32)c1 [MLS000050800-01]
activity at 1 µM [1, 4]: 134%
activity at 1 µM [1, 5]: 132%
activity at 3 µM [1, 6]: 134%
activity at 3 µM [1, 7]: 113%

CC(C)(C)NC(=O)Cn1ccc(=N)c2ccccc21 [MLS000068809-01]
viability at 48 h, 1 µM (in vitro; [3]): 99%
viability at 48 h, 3 µM (in vitro; [3]): 97%

CCOC(=O)Cn1c2c(c(=N)c3c1CCC3)CCC2 [MLS000080129-01]
viability at 66 h (in vitro; [3]): 99.5%

CC(C)c1ccc(O)c(CN2CCN(c3ccccc3)CC2)c1 [MLS000084718-01]
AC50 [2]: 1.33 µM
activity at 1 µM [1, 4]: 105%
activity at 1 µM [1, 5]: 80%
activity at 3 µM [1, 6]: 97%
activity at 3 µM [1, 7]: 96%

COC(=O)c1cc2sc(Cl)cc2n1CC(=O)Nc1ccc(OC)c(OC)c1OC [MLS000093488-01]
viability at 48 h (in vitro; [3]): 101%
viability at 48 h, 1 µM (in vitro; [3]): 101%

CCOC(=O)C1=C(C)NC2=C(C(=O)CCC2)C1c1cn(Cc2ccc(Cl)cc2Cl)nc1-c1ccccc1 (stereo not drawn) [MLS000324811-01]
viability at 48 h, 1 µM (in vitro; [3]): 106%
viability at 48 h, 3 µM (in vitro; [3]): 96%

CN(C)S(=O)(=O)Oc1ccsc1C(=O)Nc1cccc(Cl)c1 [MLS000327935-01]
viability (in vitro): 102%

Cc1nn(-c2ccc([N+](=O)[O-])cc2)c2c1C(c1cccc(Br)c1)N1C(=N2)C(=O)Nc2ccccc21 (stereo not drawn) [MLS000331784-01]
viability at 48 h, 1 µM (in vitro; [3]): 105%
viability at 48 h, 3 µM (in vitro; [3]): 102%

CCOC(=O)c1nnn(-c2nonc2N)c1-c1ccc(C)cc1 [MLS000519435-01]
AC50 ([2]; read-out: AC50): 5.31 µM
activity at 1 µM [1, 4]: 122%
activity at 1 µM [1, 5]: 101%
activity at 3 µM [1, 6]: 135%
activity at 3 µM [1, 7]: 119%

Oc1c(Br)cc(Br)cc1CN1CCN(Cc2ccccc2)CC1 [MLS000530313-01]
AC50 ([2]; read-out: AC50): 1.06 µM
activity at 1 µM [1, 4]: 129%
activity at 1 µM [1, 5]: 112%
activity at 3 µM [1, 6]: 102%
activity at 3 µM [1, 7]: 112%

Cc1nc2c(n1C1CCCCC1)C(=O)c1ccccc1C2=O [MLS000564113-01]
activity at 1 µM [1, 4]: 95%
activity at 1 µM [1, 5]: 107%
activity at 3 µM [1, 6]: 85%
activity at 3 µM [1, 7]: 94%

O=C(Cc1c[nH]c2ncc(-c3ccc(Cl)cc3)cc12)NCc1cccnc1 [NCGC00412438-01]
AC50 ([2]; read-out: AC50): 1.72 µM
Max Resp (signal direction of the dose response) ([1]; Method 1, Decrease = decreasing P. berghei viability with dose, Increase = increasing signal, Inactive = no dose response): Decrease
AC50 ([1]; Method 1, Hill fit, 50% of maximum activity response, read-out: AC50): 2 µM
Log AC50 (M) ([1]; Method 1, log10 of molar AC50 from Hill fit): -5.700 M
AC50 ([1]; Plasmodium berghei, Method 1, Hill fit, 50% of maximum activity response, read-out: AC50): 1.26 µM
AC50 ([1]; Plasmodium berghei, Method 1, log10 of molar AC50 from Hill fit, read-out: Log AC50 (converted)): 1.26 µM

O=C(Nc1ccc(F)cc1)N1CCOc2ccc(CN3CCc4ccccc4C3)cc2C1 [NCGC00471233-01]
AC50 ([2]; read-out: AC50): 8.41 µM

O=C(Nc1ccc(F)cc1F)N1CCOc2ccc(CN3CCc4ccccc4C3)cc2C1 [NCGC00471236-01]
AC50 ([2]; read-out: AC50): 16.8 µM

Cc1ccc(CN2CCc3oc(C)c(C(=O)NCCN4CCCCC4)c3C2)cc1 [NCGC00471970-01]
AC50 ([2]; read-out: AC50): 10.6 µM

CCC1(N2CCN(C)CC2)CCN([S+](=O)([O-])c2ccccc2)C1 (stereo not drawn) [NCGC00472095-01]
AC50 ([2]; read-out: AC50): 6.68 µM

CCN(CC)CCNC(=O)C12CCCC=C1N(Cc1ccccc1)C(=O)CC2 (stereo not drawn) [NCGC00472142-01]
AC50 ([2]; read-out: AC50): 8.41 µM

CC(C)CCN1CCC(N2CCN([S+](=O)([O-])c3ccc4c(c3)CCCC4)CC2)C1=O (stereo not drawn) [NCGC00472995-01]
AC50 ([2]; read-out: AC50): 9.44 µM

CC(=O)Oc1c(-c2ccc(NC(=O)CC(C)C)cc2)c(-c2ccc(F)cc2)nn1-c1ccc(F)cc1 [NCGC00473192-01]
AC50 ([2]; read-out: AC50): 13.3 µM

COc1ccc(-c2nn(-c3ccc(F)cc3)c(OC(C)=O)c2-c2ccc(NC(C)=O)cc2)cc1OC [NCGC00473193-01]
AC50 ([2]; read-out: AC50): 15 µM

CC(C)CNC(=O)CN1CN(c2ccccc2)C2(CCN(C(=O)NC3CCCCC3)CC2)C1=O [NCGC00473208-01]
AC50 ([2]; read-out: AC50): 15 µM

CCC1=C(C(=O)OC)C(c2cccc(F)c2)N2C(CC(=O)NCCc3cccs3)=CSC2=N1 (stereo not drawn) [NCGC00473313-01]
AC50 ([2]; read-out: AC50): 9.44 µM

COc1ccc(CCNC(=O)CC(c2ccccc2OC)c2c[nH]c3ccccc23)cc1OC (stereo not drawn) [NCGC00473331-01]
AC50 ([2]; read-out: AC50): 13.3 µM

CCC1=C(C(=O)OC)C(c2ccccc2OC)N2C(CC(=O)NCC3CCCO3)=CSC2=N1 (stereo not drawn) [NCGC00473341-01]
AC50 ([2]; read-out: AC50): 15 µM

O=C(CC(c1ccc(F)cc1)c1cn(Cc2ccccc2)c2ccc([N+](=O)[O-])cc12)N1CCOCC1 (stereo not drawn) [NCGC00473380-01]
AC50 ([2]; read-out: AC50): 9.44 µM

CCc1cccc2c(C(CC(=O)N3CCC(C)CC3)c3cccc(C)c3)c[nH]c12 (stereo not drawn) [NCGC00473418-01]
AC50 ([2]; read-out: AC50): 4.73 µM

COc1ccc(CCN(C)C(=O)CC(c2cccc(F)c2)c2cn(C)c3ccccc23)cc1OC (stereo not drawn) [NCGC00473446-01]
AC50 ([2]; read-out: AC50): 8.41 µM
